Results: patent publication US20100062059A1, “S-Nitrosothiols Containing Composition for the Treatment of Fatty Liver Diseases, Obesity and Other Diseases Associated with the Metabolic Syndrome and the Use of Such Compositions” (PROTAGEN AKTIENGESELLSCHAFT, priority 2006, published 2010)

Columns and labels:
soy lipoxigenase (SLO) = experiment: Linoleic acid (LA) peroxidation catalyzed by soy lipoxigenase, absorbance at 234 nm; assay type: biochemical
Description: This referred effect may be shown by the analysis of two kinetic parameters: initial velocity and extension of the peroxidation reaction until the chemical equilibrium is reached. Such parameters were analyzed by ultraviolet spectrophotometry and the kinetic curves (a′, b′, c′ and d′) were obtained from absorbance variation monitored though the band with peak at 234 nm at a preferential temperature of 37° C. This band value is characteristic for combined dienes and may, therefore, act as LA peroxidation marker. For this Example, the first curve (a′) refers to a sample of linoleic acid whose peroxidation was catalyzed by incubation with soy lipo-oxygenase at a preferential concentration of 0.056 μmol/L; the second curve (b′) refers to a sample of linoleic acid whose peroxidation was catalyzed by incubation of the linoleic acid with a mixture of soy lipo-oxygenase in the presence of NAC at a preferential concentration of 560 μmol/L; the third curve (c′) refers to a sample of linoleic acid whose peroxidation was catalyzed by incubation of soy Lipo-oxygenase in the presence of SNAC at a preferential concentration of 56 μmol/L; and the fourth curve (d′) refers to a sample of linoleic acid whose peroxidation was catalyzed by incubation of soy lipo-oxygenase in the presence of SNAC at a preferential concentration of 560 μmol/L. FIG. 3 illustrates the absorbance curves obtained for the groups of the present Example. The interpretation of the curves is given by the initial velocity, which corresponds to the inclination of the initial section of the curves within approximately 10 seconds, and the extension of the reaction, which corresponds to the absorbance values on the plateaus of the curves.

[1] = test system: Wistar rats with hepatic steatosis induced by a choline-deficient diet; experiment: Hydroperoxide (LOOH) concentration in the liver of rats with diet-induced hepatic steatosis; assay type: in vivo; conditions: control group 3.2±0.4
Description: Wistar rats with hepatic steatosis induced by a choline-deficient diet were assigned to three groups to perform the tests with the administration of S-nitroso-N-acetylcysteine (SNAC), which is one of the active principles of the present invention, and to evaluate the concentration of hydroperoxides (LOOH) in the liver.
A first group of animals, group 1, was treated with a solution of S-nitroso-N-acetylcysteine, which was administrated orally to the animals at a dose of 1.4 mg/kg/day. A second group of animals, group 2, was treated with N-acetylcysteine (NAC), which was also administrated orally to the animals at a dose of 7.0 mg/kg/day.

[2] = test system: Rats fed a choline-deficient diet; experiment: Liver histology (hematoxylin and eosin) of rats fed a choline-deficient diet; assay type: in vivo; conditions: control: moderate macrovacuolar and microvacuolar steatosis in the periportal zone
Description: Rats fed a choline-deficient diet were selected to compose the Control Group when compared to SNAC-treated rats. Hematoxylin and eosin-stained histological sections of hepatic tissue were examined under optical microscopy, as shown on FIGS. 5A and 5B.

ob/ob mice = experiment: Liver histology (hematoxylin and eosin) of ob/ob mice on MCD or hyperlipidemic diet; assay type: in vivo
Description: For the Example 4, ob/ob mice were selected. A first group of mice was fed a methionine/choline-deficient diet (Group MCD) and a second group of mice was fed a hyperlipidemic diet (Group H).
Animals were selected from both groups and hematoxylin and eosin-stained histological sections of the hepatic tissue of these animals were obtained and examined under optical microscopy.
Other animals selected from both groups of mice, Group MCD and Group H, were submitted to a 30-day treatment consisting of SNAC administration. After the 30th day, hematoxylin and eosin-stained histological sections of the hepatic tissue of these animals were obtained and examined under optical microscopy.
The remaining animals in Groups H and MCD were maintained on these diets up the 60th day and were put on SNAC administration from the 31st day on. After the 60th day of treatment, hematoxylin and eosin-stained histological sections of the hepatic tissue of these animals were obtained and examined under optical microscopy.

[3] = test system: human low density lipoprotein (LDL); experiment: CuCl2-catalyzed oxidation of LDL suspension, fluorescence spectrophotometry; assay type: biochemical; conditions: LDL 200 μg/mL, CuCl2 300 μmol/L, 15 hours, SNAC 300 μmol/L, pH 7.4
Description: For this example, approximately 15 mL of a human low density lipoprotein (LDL) suspension at a concentration of around 200 μg/mL, in phosphate buffer, pH 7.4, aerated PBS (in vitro) were previously prepared and initially divided into three parts. A first part (a) with approximately 5 mL consisting of the previously prepared suspension solely; a second part (b) with approximately 5 mL, consisting of the LDL suspension incubated in a CuCl2 solution at a preferential concentration of 300 μmol/L for a period of around 15 hours; and a third part (c) with approximately 5 mL, consisting of the LDL suspension incubated in a CuCl2 solution at a preferential concentration of 300 μmol/L for a period of around 15 hours, in the presence of SNAC at a preferential concentration of 300 μmol/L.
A sample of each part was submitted to fluorescence spectrophotometry. FIG. 2 features the emission spectrum for the analyzed samples. […] The 410- and 440-nm emission peaks in the LDL suspension fluorescence spectrum correspond to the formation of a Schiff base adduct between the lipid oxidation products contained in the LDL particles (mainly the malondialdehyde [MDA]) and the free amino groups on LDL apolipoprotein (mainly apo-B-100), and are known as LDL oxidation markers.

[4] = Body mass variation of animals on MCD or hyperlipidemic diet; assay type: in vivo; conditions: SNAC by gavage, four weeks
Description: Data are expressed as means±standard deviation.

[5] = NAC 560 μmol/L, LA 18.76 μmol/L, SLO 0.056 μmol/L, 37° C., curve b′
[6] = SNAC 56 μmol/L, reduction compared with NAC 560 μmol/L, curve c′

Structure (SMILES) | extension of the LA peroxidation reaction (soy lipoxigenase (SLO); [5]) | initial velocity of the LA peroxidation reaction (soy lipoxigenase (SLO); [5]) | hydroperoxide concentration in the liver ([1]; group 2, oral, 7.0 mg/kg/day) | extension of the LA peroxidation reaction (soy lipoxigenase (SLO); [6]) | initial velocity of the LA peroxidation reaction (soy lipoxigenase (SLO); [6]) | extension of the LA peroxidation reaction (soy lipoxigenase (SLO); SNAC 560 μmol/L, curve d′) | initial velocity of the LA peroxidation reaction (soy lipoxigenase (SLO); SNAC 560 μmol/L, curve d′) | histological characteristics of hepatic tissue [2] | hydroperoxide concentration in the liver ([1]; group 1, oral, 1.4 mg/kg/day) | histological characteristics of the liver (ob/ob mice; Group H, diet concomitantly with 30-day SNAC administration) | histological characteristics of the liver (ob/ob mice; Group H, diet to 60th day, SNAC from the 31st to the 60th day) | histological characteristics of the liver (ob/ob mice; Group MCD, diet concomitantly with 30-day SNAC administration) | histological characteristics of the liver (ob/ob mice; Group MCD, diet to 60th day, SNAC from the 31st to the 60th day) | 410 and 440 nm emission peaks (LDL oxidation markers) [3] | body mass increase ([4]; group H (untreated 28% increase)) | body mass increase ([4]; group MCD)
CC(=O)N[C@@H](CS)C(=O)O [NAC, N-acetylcysteine, reference compound] | reduced the extension | reduced the extension and velocity | 0.7±0.2 nmol/g protein | – | – | – | – | – | – | – | – | – | – | – | – | –
CC(=O)N[C@@H](CSN=O)C(=O)O [SNAC, S-nitroso-N-acetylcysteine] | – | – | – | reduction is more accentuated | reduction is more accentuated | reduction is considerably much pronounced | reduction is considerably much pronounced | normal liver in the periportal zone | 0.3±0.1 nmol/g protein | consistent with normal livers | consistent with those of normal livers | consistent with normal livers | consistent with those of normal livers | blockage of the increase of 410 and 440 nm peaks | remarkable reduction of body mass increase | practically eliminated the body mass increase
